Source: patent US20090170886A1 (Pfizer Inc, priority 2005, published 2009)

Biological target: T1, androgen receptor in MDA-MB453-MMTV clone 54-19 cells (Homo sapiens, UniProt P10275)
T1 sequence (P10275 1-920 Q868H): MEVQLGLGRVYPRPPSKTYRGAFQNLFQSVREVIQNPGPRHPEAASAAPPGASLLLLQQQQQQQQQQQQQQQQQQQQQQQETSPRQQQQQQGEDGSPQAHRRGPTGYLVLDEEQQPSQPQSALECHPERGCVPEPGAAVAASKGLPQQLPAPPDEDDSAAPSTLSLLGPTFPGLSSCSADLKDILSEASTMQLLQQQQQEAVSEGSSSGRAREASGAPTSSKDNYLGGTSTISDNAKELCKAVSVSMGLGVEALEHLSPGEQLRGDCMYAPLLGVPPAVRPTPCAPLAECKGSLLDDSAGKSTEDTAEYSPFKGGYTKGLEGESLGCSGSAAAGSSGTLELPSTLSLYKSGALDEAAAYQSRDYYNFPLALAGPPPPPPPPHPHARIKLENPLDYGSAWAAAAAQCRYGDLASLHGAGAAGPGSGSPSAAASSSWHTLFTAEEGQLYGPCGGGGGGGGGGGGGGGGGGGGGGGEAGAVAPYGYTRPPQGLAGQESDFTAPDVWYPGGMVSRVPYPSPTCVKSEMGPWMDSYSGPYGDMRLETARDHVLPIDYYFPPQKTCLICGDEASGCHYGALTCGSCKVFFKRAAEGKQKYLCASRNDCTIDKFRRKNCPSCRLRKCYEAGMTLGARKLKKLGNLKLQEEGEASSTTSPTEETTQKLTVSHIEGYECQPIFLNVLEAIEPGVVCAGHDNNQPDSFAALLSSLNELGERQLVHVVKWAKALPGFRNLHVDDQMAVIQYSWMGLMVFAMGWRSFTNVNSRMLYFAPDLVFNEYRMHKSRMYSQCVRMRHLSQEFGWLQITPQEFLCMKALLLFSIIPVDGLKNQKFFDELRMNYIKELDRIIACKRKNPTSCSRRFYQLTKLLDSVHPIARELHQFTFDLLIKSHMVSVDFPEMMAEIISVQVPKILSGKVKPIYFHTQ
Test: AR Antagonist Cell Assay (MMTV-luciferase reporter, DHT-induced)
Type: cell-based
Conditions: MDA-MB453-MMTV clone 54-19, 100 pM DHT, 17 hr; mean of multiple tests
Method in brief: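 MDA-MB453 cells stably carrying an ARE-containing MMTV-luciferase reporter, in phenol red-free medium with 1% charcoal-treated serum, preincubated 30 min with compound (0.32-1000 nM), then stimulated with 100 pM DHT for 17 h at 37 °C. Luminescence read; percent inhibition of DHT fold induction.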

SMILES | IC50 [nM]
CC(Oc1ccc(C#N)c(C(F)(F)F)c1)c1ccccc1 (racemic) [Example 1, 4-(1-Phenyl-ethoxy)-2-trifluoromethyl-benzonitrile] | 90
C=CCC(Oc1ccc(C#N)c(C(F)(F)F)c1)c1cccc(O)c1 (single isomer, unassigned; (-)) [Example 19, (−)4-{[1-(3-Hydroxyphenyl)but-3-enyl]oxy}-2-(trifluoromethyl)benzonitrile] | 34
CCCC(Oc1ccc(C#N)c(C(F)(F)F)c1)c1cccc(O)c1 (racemic) [Example 14, 4-[1-(3-Hydroxyphenyl)butoxy]-2-(trifluoromethyl)benzonitrile] | 36
CC(C)CC(Oc1ccc(C#N)c(C(F)(F)F)c1)c1cccnc1 (stereo not drawn) [Example 88, 4-(3-Methyl-1-pyridin-3-yl-butoxy)-2-trifluoromethyl-benzonitrile] | 50
N#Cc1ccc(OCc2cccc(O)c2)cc1C(F)(F)F [Example 6, 4-[(3-Hydroxybenzyl)oxy]-2-(trifluoromethyl)benzonitrile] | 6
CC(C)CC(Oc1ccc(C#N)c(C(F)(F)F)c1)c1cccc(O)c1 (single isomer, unassigned; (+)) [Example 21, (+)4-[1-(3-Hydroxyphenyl)-3-methylbutoxy]-2-(trifluoromethyl)benzonitrile] | 79
CCC(Oc1ccc(C#N)c(C(F)(F)F)c1)c1ccccn1 (stereo not drawn) [Example 79, 4-(1-Pyridin^−2-yl-propoxy)-2-trifluoromethyl-benzonitrile] | 27.1
Cc1ccc(C(CC(C)C)Oc2ccc(C#N)c(C(F)(F)F)c2)cn1 (stereo not drawn) [Example 89, 4-[3-Methyl-1-(6-methyl-pyridin-3-yl)-butoxy]-2-trifluoromethyl-benzonitrile] | 56
CCCC(Oc1ccc(C#N)c(C(F)(F)F)c1)c1cccc(O)c1 (single isomer, unassigned; (+)) [Example 15, (+)4-[1-(3-Hydroxyphenyl)butoxy]-2-(trifluoromethyl)benzonitrile] | 102
CC(Oc1ccc(C#N)c(C(F)(F)F)c1)c1cccc(O)c1 (single isomer, unassigned; (-)) [Example 9, (−)-4-[1-(3-Hydroxyphenyl)ethoxy]-2-(trifluoromethyl)benzonitrile] | 13
CC(Oc1ccc(C#N)c(C(F)(F)F)c1)c1cncc(O)c1 (single isomer, unassigned; (+)) [Example 74, (+)4-[1-(5-Hydroxypyridin-3-yl)ethoxy]-2-(trifluoromethyl)benzonitrile] | 111
COc1cccc(C(C)Oc2ccc(C#N)c(C(F)(F)F)c2)n1 (stereo not drawn) [Example 80, 4-[1-(6-Methoxy-pyridin-2-yl)-ethoxy]-2-trifluoromethyl-benzonitrile] | 152
